Measurements from PMC7066191, “Exploiting loss of heterozygosity for allele-selective colorectal cancer chemotherapy” (Nature Communications, 2020).

Assays:
Assay in all cases: biochemical
Set-up in all cases: scanMAX competition binding; kinase recovered on immobilized ligand quantified by qPCR, per cent of control
Details in all cases: read-out: APA (POC)
CLK2 = CLK2 (Homo sapiens, UniProt P49760)
Procedure: (§1) The binding affinities of APA and NAPA were evaluated in the scanMAX^sm Kinase Assay Panel (DiscoverX) at a final concentration of 10 µM. The compounds were tested for steric or allosteric binding to kinases in solution. The kinase was captured from the solution through an immobilized kinase-specific ligand and the kinase recovery was quantified. The amount of recovered kinase in the presence or absence of APA or NAPA was measured by quantitative PCR compared with the kinase capture in absence of the compound. Any compound reducing the binding affinity of a kinase to the respective immobilized ligand was scored as a potential hit, and the binding affinity of the compound toward a kinase is interpreted as the difference between the kinase recovery in the absence and presence of the compound. The inhibitory binding constants (Kd) of APA and NAPA to AURKA were evaluated in a KdELECT Kinase Assay (DiscoverX). […] Data acquisition followed the same methodology as for the scanMAX^sm Kinase Assay Panel. 6 Supplementary Figure 4. Kinome inhibition profiles of APA and its NAT2 metabolite NAPA identifies preferential APA kinase targets and differential binding to AURKA a The human kinome was assessed for binding affinity to APA and NAPA at 10 µM concentration (468 kinases in the scanMAX Kinase Assay Panel, DiscoverX). The family stratification of kinases is shown as a cladogram. Circles visualize the binding affinity of NAPA and APA towards each kinase with a higher intensity of blue corresponding to a higher binding affinity. […] One single data point from one experiment at a concentration 18.5 µM of APA was excluded as an outlier. c Thermal shift assay for human recombinant AURKA in the presence of APA and the selective inhibitor S1451. Melting temperatures were obtained by calculating the first derivative of the tryptophan fluorescence ratio at 350 nm and 330 nm and are shown for AURKA in the presence of S1451 (blue) and APA (yellow). Structural similarities between APA and kinase inhibitors[27] prompted investigation of protein kinases as mediators of APA toxicity. […] To enrich for kinase interactions that could explain the preferential killing of slow NAT2 cells, we compared the binding affinity of each kinase with APA and NAPA, selected 44 targets with preferential binding to APA and excluded kinases non-essential for cell survival and those not expressed in CRC cells (Supplementary Fig. 4A, Supplementary Table 4). […] The growth inhibition of RKO and DLD-1 following siRNA-mediated AURKA knockdown (Figs. 3c, d) reflected the relative efficiency of protein downregulation (Supplementary Fig. 5C, D). […] (Supplementary Fig. 4C). AURKA regulates cell cycle progression through association with other centrosome and spindle-associated proteins. Its activation requires auto-phosphorylation at Thr288 and ensures spindle pole integrity, centrosome duplication as well as adequate chromosomal alignment and segregation, while its inhibition leads to multipolar spindles with acentrosomal poles[28],[31]. […] S1451 reduced the fraction of pAURKA levels by >90% regardless of NAT2 expression (Fig. 3f and Su

HIPK3 = HIPK3 (Homo sapiens, UniProt Q9H422)
Chain of HIPK3 (Q9H422 whole entry): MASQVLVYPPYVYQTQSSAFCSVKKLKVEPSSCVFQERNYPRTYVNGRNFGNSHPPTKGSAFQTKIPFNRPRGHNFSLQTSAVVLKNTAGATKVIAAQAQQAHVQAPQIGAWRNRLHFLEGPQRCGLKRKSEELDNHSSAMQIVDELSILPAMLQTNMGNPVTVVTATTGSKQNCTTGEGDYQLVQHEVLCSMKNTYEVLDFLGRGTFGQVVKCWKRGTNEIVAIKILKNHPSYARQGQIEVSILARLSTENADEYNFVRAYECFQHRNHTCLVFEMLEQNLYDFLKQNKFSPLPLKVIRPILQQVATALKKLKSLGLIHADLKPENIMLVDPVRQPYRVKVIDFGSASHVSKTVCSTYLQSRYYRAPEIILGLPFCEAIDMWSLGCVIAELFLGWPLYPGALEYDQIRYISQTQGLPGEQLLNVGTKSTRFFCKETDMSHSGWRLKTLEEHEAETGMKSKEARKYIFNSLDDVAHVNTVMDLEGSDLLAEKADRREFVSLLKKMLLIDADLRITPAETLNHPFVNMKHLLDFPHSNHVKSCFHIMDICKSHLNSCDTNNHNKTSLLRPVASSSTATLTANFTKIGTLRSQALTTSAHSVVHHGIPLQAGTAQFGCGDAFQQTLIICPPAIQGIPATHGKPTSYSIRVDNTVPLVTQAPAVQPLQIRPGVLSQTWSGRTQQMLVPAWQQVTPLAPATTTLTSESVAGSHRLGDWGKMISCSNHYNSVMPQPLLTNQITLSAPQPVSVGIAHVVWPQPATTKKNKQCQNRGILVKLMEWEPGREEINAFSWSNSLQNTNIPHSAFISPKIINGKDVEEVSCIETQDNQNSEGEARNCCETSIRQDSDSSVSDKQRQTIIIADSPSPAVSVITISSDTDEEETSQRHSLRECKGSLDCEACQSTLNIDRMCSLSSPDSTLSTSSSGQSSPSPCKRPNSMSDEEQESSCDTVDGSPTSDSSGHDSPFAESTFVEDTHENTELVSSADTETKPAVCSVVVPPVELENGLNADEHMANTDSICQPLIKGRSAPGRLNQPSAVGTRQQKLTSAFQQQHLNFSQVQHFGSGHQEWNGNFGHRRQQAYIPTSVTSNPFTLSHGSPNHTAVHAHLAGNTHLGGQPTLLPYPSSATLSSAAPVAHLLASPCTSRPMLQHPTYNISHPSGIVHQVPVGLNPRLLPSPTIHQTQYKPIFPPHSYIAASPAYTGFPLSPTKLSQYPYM
Procedure: as §1

IRAK3 = IRAK3 (Homo sapiens, UniProt Q9Y616)
Chain of IRAK3 (Q9Y616 whole entry): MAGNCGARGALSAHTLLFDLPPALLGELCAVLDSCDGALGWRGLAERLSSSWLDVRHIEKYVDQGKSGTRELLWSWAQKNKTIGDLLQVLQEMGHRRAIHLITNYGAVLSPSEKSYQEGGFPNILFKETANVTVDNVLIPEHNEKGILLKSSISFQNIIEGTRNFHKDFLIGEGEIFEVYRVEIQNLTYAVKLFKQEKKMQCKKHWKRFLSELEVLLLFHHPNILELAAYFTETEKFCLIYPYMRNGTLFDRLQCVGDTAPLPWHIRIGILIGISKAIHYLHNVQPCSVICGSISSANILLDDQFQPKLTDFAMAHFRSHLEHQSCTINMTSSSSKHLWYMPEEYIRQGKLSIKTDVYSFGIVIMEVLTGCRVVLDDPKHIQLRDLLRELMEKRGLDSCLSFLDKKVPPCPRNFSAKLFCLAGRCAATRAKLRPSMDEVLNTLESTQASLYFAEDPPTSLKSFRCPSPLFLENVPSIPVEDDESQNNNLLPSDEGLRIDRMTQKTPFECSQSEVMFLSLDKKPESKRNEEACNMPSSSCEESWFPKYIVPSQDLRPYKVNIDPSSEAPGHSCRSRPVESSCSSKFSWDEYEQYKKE
Procedure: as §1

MKNK2 = MKNK2 (Homo sapiens, UniProt Q9HBH9)
Chain of MKNK2 (Q9HBH9 whole entry): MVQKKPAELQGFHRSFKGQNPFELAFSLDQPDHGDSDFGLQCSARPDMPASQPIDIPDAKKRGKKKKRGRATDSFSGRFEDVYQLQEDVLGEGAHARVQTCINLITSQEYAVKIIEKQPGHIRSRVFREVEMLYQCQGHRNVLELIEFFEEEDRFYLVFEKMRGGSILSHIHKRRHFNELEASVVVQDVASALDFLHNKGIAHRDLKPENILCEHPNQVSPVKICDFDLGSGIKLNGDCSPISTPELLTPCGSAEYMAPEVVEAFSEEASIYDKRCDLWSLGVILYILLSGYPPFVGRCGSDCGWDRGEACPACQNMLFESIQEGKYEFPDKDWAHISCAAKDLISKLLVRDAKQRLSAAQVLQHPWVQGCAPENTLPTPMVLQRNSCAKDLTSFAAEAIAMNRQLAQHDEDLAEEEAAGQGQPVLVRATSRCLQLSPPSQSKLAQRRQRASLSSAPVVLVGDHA
Procedure: as §1

ZAK = biological target: T1, ZAK (Homo sapiens, UniProt Q9NYL2)
T1 construct: gene MAP3K20
T1 sequence (Q9NYL2 whole entry): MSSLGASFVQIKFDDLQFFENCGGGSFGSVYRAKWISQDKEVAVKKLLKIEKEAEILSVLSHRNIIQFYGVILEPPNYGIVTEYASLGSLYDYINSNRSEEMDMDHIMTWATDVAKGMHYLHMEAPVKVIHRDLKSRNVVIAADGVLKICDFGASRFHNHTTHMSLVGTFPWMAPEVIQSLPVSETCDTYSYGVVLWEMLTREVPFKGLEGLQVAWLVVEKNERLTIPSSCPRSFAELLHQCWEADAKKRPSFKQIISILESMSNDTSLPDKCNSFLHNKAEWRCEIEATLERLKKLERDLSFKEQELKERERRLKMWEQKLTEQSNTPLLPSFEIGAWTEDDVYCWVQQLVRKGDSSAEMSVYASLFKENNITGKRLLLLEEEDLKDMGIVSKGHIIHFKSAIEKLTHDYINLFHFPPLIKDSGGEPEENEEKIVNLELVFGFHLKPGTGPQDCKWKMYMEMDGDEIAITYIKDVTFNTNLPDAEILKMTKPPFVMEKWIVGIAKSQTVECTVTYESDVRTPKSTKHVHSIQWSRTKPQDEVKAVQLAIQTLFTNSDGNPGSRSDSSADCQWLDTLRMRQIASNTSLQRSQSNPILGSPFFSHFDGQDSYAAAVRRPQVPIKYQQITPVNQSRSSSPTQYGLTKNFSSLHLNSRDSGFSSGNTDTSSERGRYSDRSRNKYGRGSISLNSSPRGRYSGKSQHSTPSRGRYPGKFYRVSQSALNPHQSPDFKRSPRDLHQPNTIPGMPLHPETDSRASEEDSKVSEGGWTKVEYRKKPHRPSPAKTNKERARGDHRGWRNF
Procedure: as §1

TNIK = TNIK (Homo sapiens, UniProt Q9UKE5)
Procedure: as §1

PIP5K1A = PIP5K1A (Homo sapiens, UniProt Q99755)
Procedure: as §1

MAST1 = MAST1 (Homo sapiens, UniProt Q9Y2H9)
Procedure: as §1

DYRK2 = DYRK2 (Homo sapiens, UniProt Q92630)
Procedure: as §1

NTRK3 = NTRK3 (Homo sapiens, UniProt Q16288)
Chain of NTRK3 (Q16288 whole entry): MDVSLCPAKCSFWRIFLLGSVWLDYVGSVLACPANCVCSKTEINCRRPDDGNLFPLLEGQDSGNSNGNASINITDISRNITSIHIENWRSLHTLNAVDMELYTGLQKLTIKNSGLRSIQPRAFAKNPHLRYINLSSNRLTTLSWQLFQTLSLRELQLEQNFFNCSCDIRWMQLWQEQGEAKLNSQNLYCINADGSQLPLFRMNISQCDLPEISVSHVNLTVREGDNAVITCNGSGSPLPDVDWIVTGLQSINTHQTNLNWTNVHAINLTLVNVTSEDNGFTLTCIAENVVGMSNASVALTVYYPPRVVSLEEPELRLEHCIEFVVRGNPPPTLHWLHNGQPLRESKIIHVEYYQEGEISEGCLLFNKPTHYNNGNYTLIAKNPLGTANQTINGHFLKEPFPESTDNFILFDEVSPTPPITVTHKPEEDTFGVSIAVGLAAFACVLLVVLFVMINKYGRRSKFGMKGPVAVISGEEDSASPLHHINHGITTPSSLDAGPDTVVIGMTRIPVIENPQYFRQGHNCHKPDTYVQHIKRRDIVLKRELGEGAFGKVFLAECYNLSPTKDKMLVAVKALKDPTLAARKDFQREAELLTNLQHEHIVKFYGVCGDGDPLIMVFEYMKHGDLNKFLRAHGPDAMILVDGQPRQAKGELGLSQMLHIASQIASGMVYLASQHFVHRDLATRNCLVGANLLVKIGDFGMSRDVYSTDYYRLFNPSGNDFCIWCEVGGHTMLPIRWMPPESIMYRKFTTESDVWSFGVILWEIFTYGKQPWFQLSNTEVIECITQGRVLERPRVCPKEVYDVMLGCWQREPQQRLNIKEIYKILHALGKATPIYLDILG
Procedure: as §1

MAP3K11 = MAP3K11 (Homo sapiens, UniProt Q16584)
Chain of MAP3K11 (Q16584 whole entry): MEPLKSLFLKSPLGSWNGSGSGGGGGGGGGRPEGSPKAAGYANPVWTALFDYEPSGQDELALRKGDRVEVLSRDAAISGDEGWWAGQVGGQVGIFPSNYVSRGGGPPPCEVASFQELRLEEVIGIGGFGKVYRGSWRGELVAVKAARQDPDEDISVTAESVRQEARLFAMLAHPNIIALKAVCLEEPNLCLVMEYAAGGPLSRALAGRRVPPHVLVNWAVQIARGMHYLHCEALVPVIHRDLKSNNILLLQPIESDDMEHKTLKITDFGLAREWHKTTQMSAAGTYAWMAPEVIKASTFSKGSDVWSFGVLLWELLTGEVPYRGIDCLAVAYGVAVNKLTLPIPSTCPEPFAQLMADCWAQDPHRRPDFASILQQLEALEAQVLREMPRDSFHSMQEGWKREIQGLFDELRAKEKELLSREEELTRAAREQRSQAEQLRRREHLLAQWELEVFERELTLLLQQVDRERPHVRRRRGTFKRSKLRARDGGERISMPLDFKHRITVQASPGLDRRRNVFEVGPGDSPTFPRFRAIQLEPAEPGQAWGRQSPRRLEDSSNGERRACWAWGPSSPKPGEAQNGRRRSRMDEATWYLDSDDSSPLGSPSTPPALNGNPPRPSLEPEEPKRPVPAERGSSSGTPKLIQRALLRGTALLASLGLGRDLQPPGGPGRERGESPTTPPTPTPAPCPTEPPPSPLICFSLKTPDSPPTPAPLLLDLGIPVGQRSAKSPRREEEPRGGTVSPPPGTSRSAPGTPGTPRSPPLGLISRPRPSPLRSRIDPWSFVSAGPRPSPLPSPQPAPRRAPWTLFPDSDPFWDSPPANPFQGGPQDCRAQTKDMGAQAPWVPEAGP
Procedure: as §1

FLT1 = FLT1 (Homo sapiens, UniProt P17948)
Procedure: as §1

CAMK2A = CAMK2A (Homo sapiens, UniProt Q9UQM7)
Procedure: as §1

GSG2 = biological target: T2, GSG2 (Homo sapiens, UniProt Q8TF76)
T2 construct: gene HASPIN
Procedure: as §1

HIPK2 = HIPK2 (Homo sapiens, UniProt Q9H2X6)
Procedure: as §1

Work on `COc1cc(Nc2cncc(-c3ccc(N)cc3)n2)cc(OC)c1OC` [APA, 6-(4-aminophenyl)-N-(3,4,5-trimethoxyphenyl)pyrazin-2-amine] yielded a remaining binding at 10 µM (CLK2) of 27%, a remaining binding at 10 µM (HIPK3) of 42% and a remaining binding at 10 µM (IRAK3) of 46%. It also gave a remaining binding at 10 µM (MKNK2) of 26%, a remaining binding at 10 µM (ZAK) of 22% and a remaining binding at 10 µM (TNIK) of 39%. It also gave a remaining binding at 10 µM (PIP5K1A) of 52%, a remaining binding at 10 µM (MAST1) of 46% and a remaining binding at 10 µM (DYRK2) of 63%. It also gave a remaining binding at 10 µM (NTRK3) of 11%, a remaining binding at 10 µM (MAP3K11) of 22% and a remaining binding at 10 µM (FLT1) of 36%. It also gave a remaining binding at 10 µM (CAMK2A) of 59%, a remaining binding at 10 µM (GSG2) of 6.9% and a remaining binding at 10 µM (HIPK2) of 22%.
